Data published in patent US20260325540A1 (priority 2023, published 2026).

Each compound was assayed against HCoV-229E 3CL protease (Human coronavirus 229E, UniProt P0C6U2) (assay: FRET based protease assay, HCoV-229E 3CL). Conditions: 229E IC50, 6 nM H229E-CoV Chis-3CLpro, 6 μM peptide 1 substrate, 25° C., 1.5 hrs, pH 7.5.
HCoV-229E 3CL protease, sequence (P0C6U2 2966-3267): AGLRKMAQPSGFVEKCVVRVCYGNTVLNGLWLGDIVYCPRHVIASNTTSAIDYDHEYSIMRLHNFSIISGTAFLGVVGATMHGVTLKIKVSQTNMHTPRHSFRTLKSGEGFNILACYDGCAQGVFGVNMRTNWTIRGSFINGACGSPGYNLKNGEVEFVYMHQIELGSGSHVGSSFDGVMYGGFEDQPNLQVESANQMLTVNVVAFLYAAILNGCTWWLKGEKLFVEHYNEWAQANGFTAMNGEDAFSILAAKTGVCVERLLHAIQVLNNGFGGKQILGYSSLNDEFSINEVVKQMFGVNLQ
Type: biochemical
For `CC1(C)[C@@H]2[C@H]3C(=O)N[C@H](C#N)C[C@@H]4C(=O)NC[C@@H]4CCCC[C@H](NC(=O)c4cccc(Cl)c4Cl)C(=O)N3C[C@@H]21` [Example 134], the IC50 was under 100 nM. With `N#C[C@@H]1C[C@H]2C(=O)NC[C@@H]2CCCCC(=O)N2C[C@@H]3CCC[C@@H]3[C@H]2C(=O)N1` [Example 26] the IC50 was 1000 to 20000 nM. With `CC1(C)[C@@H]2[C@H]3C(=O)N[C@H](C#N)C[C@@H]4C(=O)NC[C@@H]4CCCC[C@H](NC(=O)C4CC(F)(F)C4)C(=O)N3C[C@@H]21` [Example 62] the IC50 was under 100 nM. `CC(C)C[C@@H]1NC(=O)CCCCCC[C@H]2CNC(=O)[C@H]2C[C@@H](C=O)NC1=O` [Example 45] gave an IC50 of under 100 nM. For `CC1(C)[C@@H]2[C@H]3C(=O)N[C@H](C#N)C[C@@H]4C(=O)NC[C@@H]4CCCC[C@H](NC(=O)c4ccc(F)cc4C(F)(F)F)C(=O)N3C[C@@H]21` [Example 139], the IC50 was under 100 nM. Compound `CC(C)(C)OC(=O)N[C@H]1CCCC[C@H]2CNC(=O)[C@H]2C[C@@H](C#N)NC(=O)[C@@H]2CCCCCN2C1=O` [Example 143] has an IC50 of 100 to 1000 nM. `CC(C)C[C@@H]1NC(=O)[C@@H](Cc2ccccc2)CCC[C@@H]2CNC(=O)[C@@H]2C[C@@H](C=O)NC1=O` [Example 9] showed an IC50 of 100 to 1000 nM. With `CO[C@@H]1C[C@H]2C(=O)N[C@H](C#N)C[C@@H]3C(=O)NC[C@@H]3CCCC[C@H](NC(=O)OC(C)(C)C)C(=O)N2C1` [Example 147] the IC50 was 100 to 1000 nM.
